Our source for the carcinogen call and TD50 values is PubChem BioAssay AID1745844 (Carcinogenic Potency Database (CPDB), 2022).

Activity calls are given as the source filed them. The rule behind the calls is not given here.

The test system of this series is rodent lifetime carcinogenesis bioassay, tumor incidence TD50. Put plainly: chronic cancer bioassays in animals – CPDB, compiled studies (AID 1745844).

For `CC(O)CN(C)N=O` (stereo unspecified), the carcinogen call (rat, strain F344/DuCrj, males, in drinking water, site: liver, lesion: one or several types, types not named, dosed 40 weeks, study length 78 weeks) was “negative (inactive)”. Also, the TD50 is 0.408 mg/kg/day (rat, strain Fischer 344, females, in drinking water, site: esophagus, lesion: carcinoma, dosed 30 weeks, study length 75 weeks); 0.105 mg/kg/day (rat, strain Fischer 344, females, in drinking water, site: esophagus, lesion: several types, types named in the paper, dosed 30 weeks, study length 75 weeks); 0.895 mg/kg/day (rat, strain Fischer 344, females, in drinking water, site: liver, lesion: hepatocellular carcinoma, dosed 30 weeks, study length 75 weeks); 2.54 mg/kg/day (rat, strain Fischer 344, females, in drinking water, site: liver, lesion: neoplastic nodule, dosed 30 weeks, study length 75 weeks); 0.798 mg/kg/day (rat, strain Fischer 344, females, in drinking water, site: liver, lesion: several types, types named in the paper, dosed 30 weeks, study length 75 weeks); 0.408 mg/kg/day (rat, strain Fischer 344, females, in drinking water, site: lung, lesion: several types, types named in the paper, dosed 30 weeks, study length 75 weeks). In addition, the TD50 was 0.0486 mg/kg/day (rat, strain Fischer 344, females, in drinking water, site: nasal cavity, lesion: several types, types named in the paper, dosed 30 weeks, study length 75 weeks); 0.17 mg/kg/day (rat, strain Fischer 344, males, in drinking water, site: esophagus, lesion: several types, types named in the paper, dosed 30 weeks, study length 75 weeks); 0.0442 mg/kg/day (rat, strain Fischer 344, males, in drinking water, site: nasal cavity, lesion: several types, types named in the paper, dosed 30 weeks, study length 75 weeks).
`O=NN1C[C@H](O)C[C@H]1C(=O)O`: the TD50 (rat, strain MRC, females, in drinking water, site: any site (literature study), lesion: several types, types named in the paper, dosed 75 weeks, study length 104 weeks) was 3.84 mg/kg/day (inactive). Where the note is “rat, strain MRC, males, in drinking water, site: any site (literature study), lesion: several types, types named in the paper, dosed 75 weeks, study length 104 weeks”, the carcinogen call was “negative (inactive)”.
With `CN(C)C(=O)Nc1ccc(Cl)c(Cl)c1`, the carcinogen call was “negative (inactive)” (mouse, strain B6AKF1, females, oral dosing, site: any site (literature study), lesion: several types, types named in the paper, dosed 76 weeks, study length 76 weeks); “negative (inactive)” (mouse, strain B6AKF1, females, oral dosing, site: liver, lesion: hepatoma, dosed 76 weeks, study length 76 weeks); “negative (inactive)” (mouse, strain B6AKF1, females, oral dosing, site: lung, lesion: adenoma, dosed 76 weeks, study length 76 weeks); “negative (inactive)” (mouse, strain B6AKF1, males, oral dosing, site: liver, lesion: hepatoma, dosed 76 weeks, study length 76 weeks); “negative (inactive)” (mouse, strain B6C3F1, females, oral dosing, site: liver, lesion: hepatoma, dosed 76 weeks, study length 76 weeks). The TD50 runs as follows: (mouse, strain B6AKF1, males, oral dosing, site: any site (literature study), lesion: several types, types named in the paper, dosed 76 weeks, study length 76 weeks) 260 mg/kg/day (inactive); (mouse, strain B6AKF1, males, oral dosing, site: lung, lesion: adenoma, dosed 76 weeks, study length 76 weeks) 437 mg/kg/day (inactive); (mouse, strain B6C3F1, females, oral dosing, site: any site (literature study), lesion: several types, types named in the paper, dosed 76 weeks, study length 76 weeks) 388 mg/kg/day (inactive); (mouse, strain B6C3F1, females, oral dosing, site: lung, lesion: adenoma, dosed 76 weeks, study length 76 weeks) 600 mg/kg/day (inactive); (mouse, strain B6C3F1, males, oral dosing, site: any site (literature study), lesion: several types, types named in the paper, dosed 76 weeks, study length 76 weeks) 361 mg/kg/day (inactive); (mouse, strain B6C3F1, males, oral dosing, site: liver, lesion: hepatoma, dosed 76 weeks, study length 76 weeks) 1150 mg/kg/day (inactive). Also, for the setting “mouse, strain B6C3F1, males, oral dosing, site: lung, lesion: adenoma, dosed 76 weeks, study length 76 weeks”, the TD50 was 1150 mg/kg/day (inactive).
For `CN(C)CCOc1ccc(/C(=C(/CCCl)c2ccccc2)c2ccccc2)cc1`, the carcinogen call is “negative (inactive)” (rat, strain Charles River CD (Sprague-Dawley), females, by gavage, site: liver, lesion: hepatocellular adenoma, dosed 52 weeks, study length 52 weeks); “negative (inactive)” (rat, strain Charles River CD (Sprague-Dawley), females, by gavage, site: liver, lesion: hepatocellular adenoma, dosed 52 weeks, study length 65 weeks); “negative (inactive)” (rat, strain Charles River CD (Sprague-Dawley), females, by gavage, site: liver, lesion: hepatocellular carcinoma, dosed 52 weeks, study length 52 weeks); “negative (inactive)” (rat, strain Charles River CD (Sprague-Dawley), females, by gavage, site: liver, lesion: hepatocellular carcinoma, dosed 52 weeks, study length 65 weeks); “negative (inactive)” (rat, strain Sprague-Dawley, females, by gavage, site: liver, lesion: one or several types, types not named, dosed 52 weeks, study length 52 weeks); “negative (inactive)” (rat, strain Sprague-Dawley, females, by gavage, site: liver, lesion: one or several types, types not named, dosed 52 weeks, study length 65 weeks). Also, the carcinogen call is “negative (inactive)” (rat, strain Sprague-Dawley, females, by gavage, site: liver, lesion: several types, types named in the paper, dosed 52 weeks, study length 52 weeks); “negative (inactive)” (rat, strain Sprague-Dawley, females, by gavage, site: liver, lesion: several types, types named in the paper, dosed 52 weeks, study length 65 weeks); “negative (inactive)” (rat, strain Sprague-Dawley, females, in feed, site: liver, lesion: hepatocellular carcinoma, dosed 104 weeks, study length 104 weeks); “negative (inactive)” (rat, strain Sprague-Dawley, females, in feed, site: mammary gland, lesion: one or several types, types not named, dosed 104 weeks, study length 104 weeks); “negative (inactive)” (rat, strain Sprague-Dawley, females, in feed, site: pituitary gland, lesion: one or several types, types not named, dosed 104 weeks, study length 104 weeks); “negative (inactive)” (rat, strain Sprague-Dawley, males, in feed, site: liver, lesion: hepatocellular adenoma, dosed 104 weeks, study length 104 weeks). Besides, the carcinogen call reads like this: (rat, strain Sprague-Dawley, males, in feed, site: mammary gland, lesion: one or several types, types not named, dosed 104 weeks, study length 104 weeks) “negative (inactive)”; (rat, strain Sprague-Dawley, males, in feed, site: pituitary gland, lesion: one or several types, types not named, dosed 104 weeks, study length 104 weeks) “negative (inactive)”; (rat, strain Sprague-Dawley, males, in feed, site: testis, lesion: one or several types, types not named, dosed 104 weeks, study length 104 weeks) “negative (inactive)”. Also, the TD50 by setting is: (rat, strain Sprague-Dawley, females, in feed, site: liver, lesion: hepatocellular adenoma, dosed 104 weeks, study length 104 weeks) 344 mg/kg/day (inactive); (rat, strain Sprague-Dawley, males, in feed, site: liver, lesion: hepatocellular carcinoma, dosed 104 weeks, study length 104 weeks) 1040 mg/kg/day (inactive).
With `Cc1ccc(C)c(N)c1`, the TD50 (mouse, strain CD-1 HaM/ICR, females, in feed, site: any site (literature study), lesion: several types, types named in the paper, dosed 68 weeks, study length 94 weeks) is 475 mg/kg/day; the TD50 (mouse, strain CD-1 HaM/ICR, females, in feed, site: liver, lesion: hepatoma, dosed 68 weeks, study length 94 weeks) is 552 mg/kg/day; the TD50 (mouse, strain CD-1 HaM/ICR, females, in feed, site: liver, lesion: several types, types named in the paper, dosed 68 weeks, study length 94 weeks) is 552 mg/kg/day; the TD50 (mouse, strain CD-1 HaM/ICR, females, in feed, site: lung, lesion: several types, types named in the paper, dosed 68 weeks, study length 94 weeks) was 1290 mg/kg/day (inactive); the TD50 (mouse, strain CD-1 HaM/ICR, males, in feed, site: all sites, lesion: all vascular tumors, dosed 68 weeks, study length 94 weeks) is 723 mg/kg/day; the TD50 (mouse, strain CD-1 HaM/ICR, males, in feed, site: any site (literature study), lesion: several types, types named in the paper, dosed 68 weeks, study length 94 weeks) came to 321 mg/kg/day. The TD50 by setting is: (mouse, strain CD-1 HaM/ICR, males, in feed, site: liver, lesion: several types, types named in the paper, dosed 68 weeks, study length 94 weeks) 805 mg/kg/day; (mouse, strain CD-1 HaM/ICR, males, in feed, site: lung, lesion: several types, types named in the paper, dosed 68 weeks, study length 94 weeks) 765 mg/kg/day (inactive); (rat, strain Charles River CD (Sprague-Dawley), males, in feed, site: any site (literature study), lesion: several types, types named in the paper, dosed 77 weeks, study length 103 weeks) 67.2 mg/kg/day; (rat, strain Charles River CD (Sprague-Dawley), males, in feed, site: liver, lesion: several types, types named in the paper, dosed 77 weeks, study length 103 weeks) 3260 mg/kg/day (inactive); (rat, strain Charles River CD (Sprague-Dawley), males, in feed, site: subcutaneous tissue, lesion: several types, types named in the paper, dosed 77 weeks, study length 103 weeks) 152 mg/kg/day.
Turning to `C#CC(C)(C)NC(=O)c1cc(Cl)cc(Cl)c1`, the TD50 is 1480 mg/kg/day (mouse, strain B6C3F1, males, in feed, site: liver, lesion: hepatocellular carcinoma, dosed 78 weeks, study length 78 weeks); 140 mg/kg/day (mouse, strain B6C3F1, males, in feed, site: liver, lesion: hepatocellular carcinoma, dosed 104 weeks, study length 104 weeks); 1360 mg/kg/day (mouse, strain B6C3F1, males, in feed, site: liver, lesion: several types, types named in the paper, dosed 52 weeks, study length 52 weeks); 700 mg/kg/day (mouse, strain B6C3F1, males, in feed, site: liver, lesion: several types, types named in the paper, dosed 78 weeks, study length 78 weeks); 209 mg/kg/day (mouse, strain B6C3F1, males, in feed, site: liver, lesion: several types, types named in the paper, dosed 104 weeks, study length 104 weeks).
On to `O=[As](O)(O)O`, for which the TD50 came to 0.169 mg/kg/day (monkey, strain Cynomolgus [Macaca fascicularis], both sexes, in feed, site: any site (literature study), lesion: benign tumor, dosed 735 weeks, study length 735 weeks) and 0.029 mg/kg/day (monkey, strain Cynomolgus [Macaca fascicularis], both sexes, in feed, site: kidney cortex, lesion: adenoma, dosed 735 weeks, study length 735 weeks). The carcinogen call reads like this: (rat, strain Osborne-Mendel, both sexes, in feed, site: any site (literature study), lesion: malignant tumor, dosed 104 weeks, study length 104 weeks) “negative (inactive)”; (rat, strain Osborne-Mendel, both sexes, in feed, site: any site (literature study), lesion: several types, types named in the paper, dosed 104 weeks, study length 104 weeks) “negative (inactive)”.
`ClCOCCl`: the TD50 runs as follows: (mouse, strain Ha/ICR, females, i.p., site: abdomen, lesion: sarcoma, dosed 60 weeks, study length 60 weeks) 0.182 mg/kg/day; (mouse, strain Ha/ICR, males, inhaled, site: lung, lesion: adenoma, dosed 26 weeks, study length 108 weeks) 1.26 mg/kg/day; (mouse, strain Ha/ICR, males, inhaled, site: lung, lesion: several types, types named in the paper, dosed 26 weeks, study length 108 weeks) 1.16 mg/kg/day; (rat, strain Sprague-Dawley Spartan, males, inhaled, site: any site (literature study), lesion: several types, types named in the paper, dosed 26 weeks, study length 121 weeks) 0.00234 mg/kg/day; (rat, strain Sprague-Dawley Spartan, males, inhaled, site: lung, lesion: adenoma, dosed 26 weeks, study length 121 weeks) 0.196 mg/kg/day; (rat, strain Sprague-Dawley Spartan, males, inhaled, site: nasal passageway, lesion: carcinoma, dosed 26 weeks, study length 121 weeks) 0.795 mg/kg/day. Also, the TD50 (rat, strain Sprague-Dawley Spartan, males, inhaled, site: nasal passageway, lesion: esthesioneuroepithelioma, dosed 26 weeks, study length 121 weeks) was 0.00357 mg/kg/day. Also, the carcinogen call was “negative (inactive)” (mouse, strain Ha/ICR, males, inhaled, site: liver, lesion: hepatocellular carcinoma, dosed 26 weeks, study length 108 weeks); “negative (inactive)” (mouse, strain Ha/ICR, males, inhaled, site: liver, lesion: several types, types named in the paper, dosed 26 weeks, study length 108 weeks); “negative (inactive)” (rat, strain Sprague-Dawley Spartan, males, inhaled, site: liver, lesion: hepatocellular tumor, benign, dosed 26 weeks, study length 121 weeks).

As a reminder, the TD50 is the dose at which the toxic effect under study appears in half of the subjects.
